# Read-outs that look alike come from different tables or passages of the source.
# How the values were obtained:
# Experiment in all cases: Alamar Blue cytotoxicity study
# DOHH2 cells = format: cell-based, human; conditions: for Combination Index (Chou-Talalay): 120 h; for IC50: Homo sapiens
# Procedure: (§1) Cells were treated with either Humalutin, olaparib or a combination of both and seeded into 96 well-plates. At each time point after treatment, cells were incubated with Alamar Blue (Thermo Fisher, DALL1100) for 4 hours and fluorescence measurements were performed using a multiplate reader Fluoroskan ascent FL to assess cell proliferation and viability. All experiments were done in duplicates using 2 samples in each experiment. Data were normalized to the untreated controls.
# (§2) Cells were incubated with 0.25, 0.5, 1, 2.5 or 5 μg/ml of Humalutin in cell culture flasks and incubated at 37° C./5% CO2. After 18-20 hours cells were washed and resuspended in fresh medium. Cell bound activity after washing was measured using a calibrated gamma detector (Cobra II auto-gamma detector, Packard Instrument Company, Meriden, Conn., USA). Cell concentration and viability was also measured after washing using Guava ViaCount Cell Dispersal Reagent for Flow Cytometry (Merck GaA, Darmstadt, Germany) and measured in a Guava EasyCyte 12HT (Merck KGaA, Darmstadt, Germany) to determine how well the cells survived the incubation. Cells were seeded in 96 well plates.
# (§3) Cells were seeded in 96 well plates pre-coated with from 1 to 100 μM olaparib in 0.2 ml medium and incubated at 37° C./5% CO2 for 72 hours before the cytotoxic effect was measured using alamar blue cell viability assay.
# (§4) Cells were incubated with either 0, 0.5 μg/ml or 1 μg/ml Humalutin and the same procedure as described before for treatment with humalutin alone and olaparib alone was followed. Concentrations of olaparib used were between 1 and 100 μM.
# (§5) The Chou-Talalay model was used for synergy calculations using the Compusyn software. R (goodness of fit) was calculated for the individual treatments and should be over 0.90 in in vitro culture experiments in order to use the calculated combination index (CI). The CI is an indication of synergy: 0-0.9 is considered synergy. Synergysm grading was used as described in WO2006004917A2. […]
# as §2, with “viability were” for “viability was”, “plates. Alamar blue viability measurements were performed 120 h after seeding.” for “plates.”
# Granta 519 cells = format: cell-based, human; conditions: for Combination Index (Chou-Talalay): Granta, 120 h; for IC50: Homo sapiens
# Procedure: as §1, §2, §3, §4, §5
# as §2, with “viability were” for “viability was”, “plates. Alamar blue viability measurements were performed 120 h after seeding.” for “plates.”
# Rec-1 cells = format: cell-based; conditions: Homo sapiens, Rec1; Rec-1, 72 h incubation after seeding
# Procedure: as §1, §2
# (§6) Cells were seeded in 96 well plates pre-coated with from 1 to 100 μM olaparib in 0.2 ml medium and incubated at 37° C./5% CO2 for 72 hours before the cytotoxic effect was measured using alamar blue cell viability assay. […]
# WSU-DLCL2 cells = format: cell-based; conditions: Homo sapiens, WSUDLCL2; WSU-DLCL2, 72 h incubation after seeding
# Procedure: as §1, §2, §6
# SUDHL4 cells = format: cell-based, human; conditions: for IC50: Homo sapiens
# Procedure: as §2, with “plates. […]” for “plates.”
# Cells were treated with either Humalutin, venetoclax or a combination of both and seeded into 96 well-plates. At each time point after treatment, cells were incubated with Alamar Blue (Thermo Fisher, DALL1100) for 4 hours and fluorescence measurements were performed using a multiplate reader Fluoroskan ascent FL to assess cell proliferation and viability. All experiments were done in duplicates using 2 samples in each experiment. Data were normalized to the untreated controls.
# Cells were incubated with either 0, 0.5 μg/ml or 1 μg/ml Humalutin and the same procedure as described before for treatment with Humalutin alone and venetoclax alone was followed.
# The Chou-Talalay model was used for synergy calculations using the Compusyn software. R (goodness of fit) was calculated for the individual treatments and should be over 0.90 in in vitro culture experiments in order to use with confidence the calculated combination index (CI). The CI is an indication of synergy: 0-0.9 is considered synergy. Synergysm grading was used as described in WO2006004917A2.
# as §2, with “viability were” for “viability was”, “plates. Alamar blue viability measurements were performed 120 h after seeding.” for “plates.”
# (§7) Cells were incubated with either 0 (control), 0.5 μg/ml or 1 μg/ml Humalutin for 18 to 20 hours. Cells were then washed and resuspended in fresh medium.
# U2932 cells = format: cell-based, human; conditions: for IC50: Homo sapiens
# Procedure: as §1, §2, §3, §4, §5
# as §2, with “viability were” for “viability was”, “plates. Alamar blue viability measurements were performed 120 h after seeding.” for “plates.”
# as §7
structure (smiles),measurement,setting,value
O=C(c1cc(Cc2n[nH]c(=O)c3ccccc23)ccc1F)N1CCN(C(=O)C2CC2)CC1 [olaparib],Combination Index (Chou-Talalay),"DOHH2 cells; DOHH2, olaparib dose 2 + Humalutin 1 μg/ml",1.34
same,Combination Index (Chou-Talalay),"DOHH2 cells; DOHH2, olaparib dose 4 + Humalutin 1 μg/ml",0.64
same,Combination Index (Chou-Talalay),"DOHH2 cells; DOHH2, olaparib dose 8 + Humalutin 1 μg/ml",0.43
same,Combination Index (Chou-Talalay),"DOHH2 cells; DOHH2, olaparib dose 10 + Humalutin 1 μg/ml",0.34
same,IC50,"DOHH2 cells; DOHH-2, read-out: IC50 at 120 h, DOHH2, 120 h incubation after seeding",7560 nM
same,IC50,"DOHH2 cells; DOHH-2, DOHH2, 72 h incubation after seeding, read-out: IC50",2060 nM
same,"Synergism grade by Combination Index, combination with Humalutin","Granta 519 cells; Granta 519, Humalutin 0.5 or 1 μg/ml, 72 h",very strong synergism
same,Combination Index (Chou-Talalay),Granta 519 cells; olaparib dose 2 + Humalutin 1 μg/ml,1.77
same,Combination Index (Chou-Talalay),Granta 519 cells; olaparib dose 4 + Humalutin 1 μg/ml,0.15
same,Combination Index (Chou-Talalay),Granta 519 cells; olaparib dose 8 + Humalutin 1 μg/ml,0.06
same,Combination Index (Chou-Talalay),Granta 519 cells; olaparib dose 10 + Humalutin 1 μg/ml,0.10
same,IC50,"Granta 519 cells; read-out: IC50 at 120 h, Granta 519, 120 h incubation after seeding",15000 nM
same,IC50,"Granta 519 cells; Granta 519, 72 h incubation after seeding, read-out: IC50",2680 nM
same,IC50,Rec-1 cells,721 nM
same,IC50,WSU-DLCL2 cells,1260 nM
same,IC50,"SUDHL4 cells; SU-DHL-4, read-out: IC50 at 120 h, SUDHL-4, 120 h incubation after seeding",22100 nM
same,IC50,"SUDHL4 cells; SU-DHL-4, SUDHL4, 72 h incubation after seeding, read-out: IC50",1040 nM
same,"Synergism grade by Combination Index, combination with Humalutin","SUDHL4 cells; SUDHL4, Humalutin 0.5 or 1 μg/ml, 72 h",moderate antagonism
same,IC50,"U2932 cells; read-out: IC50 at 120 h, U2932, 120 h incubation after seeding",89100 nM
same,IC50,"U2932 cells; U2932, 72 h incubation after seeding, read-out: IC50",1930 nM
same,"Synergism grade by Combination Index, combination with Humalutin","U2932 cells; U2932, Humalutin 0.5 or 1 μg/ml, 72 h",very strong synergism

# — US20210106703A1, “RADIOIMMUNOCONJUGATES IN COMBINATION WITH OTHER DRUGS AS TREATMENT AGAINST NHL” (Nordic Nanovector ASA, priority 2017, published 2021)
